# Target: T1, hYAK3 (Homo sapiens, UniProt O43781)
# T1 construct: GST (N); His6 (C); made in house; host or cells: baculovirus expression system in Sf9 cells
# T1 sequence (O43781 124-526): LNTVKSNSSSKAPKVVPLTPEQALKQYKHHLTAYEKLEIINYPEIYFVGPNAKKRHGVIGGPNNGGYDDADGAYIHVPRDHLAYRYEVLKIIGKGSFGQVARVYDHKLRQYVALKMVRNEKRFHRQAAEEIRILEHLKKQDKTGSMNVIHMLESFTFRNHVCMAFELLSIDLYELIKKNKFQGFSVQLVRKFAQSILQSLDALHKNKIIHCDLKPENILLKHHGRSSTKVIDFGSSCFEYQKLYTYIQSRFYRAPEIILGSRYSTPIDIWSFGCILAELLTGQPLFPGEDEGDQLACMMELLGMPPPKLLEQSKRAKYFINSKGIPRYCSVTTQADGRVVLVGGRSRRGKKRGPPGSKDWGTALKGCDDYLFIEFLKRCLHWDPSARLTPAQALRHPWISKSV
# Test: YAK3 Scintillation Proximity Assay using Ser164 of myelin basic protein as the phosphoacceptor (kinase assay of purified hYAK3)
# Type: biochemical
# Conditions: purified GST-hYak3-His6 (aa 124-526), 4 nM; 0.001 mM ATP; 4 μM Ser164 peptide; 2 hours at room temperature; pIC50 = −log10(IC50)
# Description: Substrate phosphorylation assays were carried out as follows:
# YAK3 Scintillation Proximity Assays Using Ser164 of Myelin Basic Protein as the Phosphoacceptor
# The source of Ser164 substrate peptide The biotinylated Ser164, S164A peptide(Biotinyl-LGGRDSRAGS*PMARR-OH), sequence derived from the C-terminus of bovine myelin basic protein (MBP) with Ser162 substituted as Ala 162, was purchased from California Peptide Research Inc. (Napa, Calif.), and its purity was determined by HPLC. Phosphorylation occurs at position 164 (marked S* above). The calculated molecular mass of the peptide was 2166 dalton. Solid sample was dissolved at 10 mM in DMSO, aliquoted, and stored at −20° C. until use.
# hYAK3: Glutathione-S-Transferase (GST)-hYak3-His6 containing amino acid residues 124-526 of human YAK3 (aa 124-526 of SEQ ID NO 2. in U.S. Pat. No. 6,323,318) was purified from baculovirus expression system in Sf9 cells using Glutathione Sepharose 4B column chromatography followed by Ni-NTA-Agarose column chromatography. Purity greater than 65% typically was achieved. Samples, in 50 mM Tris, 150 mM NaCl, 10% glycerol, 0.1% Triton, 250 mM imidazole, 10 mM β-mercapto ethanol, pH 8.0. were stored at −80° C. until use.
# Kinase assay of purified hYAK3: Assays were performed in 96 well (Costar, Catalog No. 3789) or 384 well plates (Costar, Catalog No. 3705). Reaction (in 20, 25, or 40 μl volume) mix contained in final concentrations 25 mM Hepes buffer, pH 7.4; 10 mM MgCl2; 10 mM β-mercapto ethanol; 0.0025% Tween-20; 0.001 mM ATP, 0.1 μCi of [γ-^33P]ATP; purified hYAK3 (7-14 ng/assay; 4 nM final); and 4 μM Ser164 peptide. Compounds, titrated in DMSO, were evaluated at concentrations ranging from 50 μM to 0.5 nM. […] Reactions were incubated for 2 hours at room temperature and were stopped by a 75 ul addition of […] Streptavidin Scintillation Proximity beads (Amersham Pharmacia Biotech, Catalog No. RPNQ 0007) in PBS, pH 7.4, 10 mM EDTA, 0.1% Triton X-100, 1 mM ATP. Under the assay conditions defined above, the Km(apparent) for ATP was determined to be 7.2+/−2.4 μM.
row,SMILES,IC50 [nM]
1,"Cn1c(C(C)(C)C)nc2ccc(/C=C3\SC(Nc4ccccc4Cl)=NC3=O)cc21 [Example 53, (5Z)-2-[(2-Chlorophenyl)amino]-5-{[2-(1,1-dimethylethyl)-1-methyl-1H-benzimidazol-6-yl]methylidene}-1,3-thiazol-4(5H)-one]",102 to 1000
2,"CN(C)CCn1nnc2ccc(/C=C3\SC(Nc4c(Cl)cccc4Cl)=NC3=O)cc21 [Example 58, (5Z)-2-[(2,6-dichlorophenyl)amino]-5-({1-[2-(dimethylamino)ethyl]-1H-1,2,3-benzotriazol-6-yl}methylidene)-1,3-thiazol-4(5H)-one]",10.2 to 100
3,"Cc1nc2ccc(C=C3SC(=Nc4c(Cl)cccc4Cl)NC3=O)cc2o1 [Example 59, 2-(2,6-Dichloro-phenylimino)-5-(2-methyl-benzooxazol-6-yl-methylene)-thiazolidin-4-one]",1.02 to 10
